Experiments:
Experiment in all cases: relative viability (nuclei count vs DMSO), 5 days (fraction); higher = more cells survive
[1] = compound: CC1=C(C(=O)N2C=CSC2=N1)CCN3CCC(=C(C4=CC=CC=C4)C5=CC=C(C=C5)F)CC3 + CS(=O)(=O)CCNCc1ccc(-c2ccc3ncnc(Nc4ccc(OCc5cccc(F)c5)c(Cl)c4)c3c2)o1 [Lapatinib] (partner 2 µM)
Summary of the method: (§1)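 Cells from lung cancer lines were seeded into 1536-well plates and, one day later, dosed by pin tool. Treatments were either a single drug or a fixed dose of an anchor drug with five library-drug doses (not always all listed) in √10 steps. After 5 days, nuclei were stained in a one-step fixation (final 0.05% Triton X-100, 1% formaldehyde, 1 ug/ml Hoechst) and counted on 4× images, and relative viability is the treated-to-vehicle nuclei ratio, as the median of duplicate plates.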

[2] = compound: CC1=C(C(=O)N2C=CSC2=N1)CCN3CCC(=C(C4=CC=CC=C4)C5=CC=C(C=C5)F)CC3 + C[C@@H](Oc1cc(-c2cnn(C3CCNCC3)c2)cnc1N)c1c(Cl)ccc(F)c1Cl [Crizotinib] (partner 1 µM)
Summary of the method: as §1

[3] = compound: CC1=C(C(=O)N2C=CSC2=N1)CCN3CCC(=C(C4=CC=CC=C4)C5=CC=C(C=C5)F)CC3 + Cc1cc(Nc2cc(N3CCN(C)CC3)nc(Sc3ccc(NC(=O)C4CC4)cc3)n2)n[nH]1 [Tozasertib] (partner 0.1 µM)
Summary of the method: as §1

[4] = compound: CC1=C(C(=O)N2C=CSC2=N1)CCN3CCC(=C(C4=CC=CC=C4)C5=CC=C(C=C5)F)CC3 + Nc1ncn([C@H]2C[C@H](O)[C@@H](CO)O2)c(=O)n1 [Decitabine] (partner 2 µM)
Summary of the method: as §1

Row | Cell Line | relative viability ([1]; first compound 0.253 µM) | relative viability ([1]; first compound 0.8 µM) | relative viability ([1]; first compound 2.53 µM) | relative viability ([1]; first compound 8 µM) | relative viability ([2]; first compound 0.253 µM) | relative viability ([2]; first compound 0.8 µM) | relative viability ([2]; first compound 2.53 µM) | relative viability ([2]; first compound 8 µM) | relative viability ([3]; first compound 0.08 µM) | relative viability ([3]; first compound 0.253 µM) | relative viability ([3]; first compound 0.8 µM) | relative viability ([3]; first compound 2.53 µM) | relative viability ([3]; first compound 8 µM) | relative viability ([4]; first compound 0.08 µM) | relative viability ([4]; first compound 0.253 µM) | relative viability ([4]; first compound 0.8 µM) | relative viability ([4]; first compound 2.53 µM) | relative viability ([4]; first compound 8 µM) | relative viability ([1]; first compound 0.08 µM) | relative viability ([2]; first compound 0.08 µM)
1 | HCC-366 | 0.778 | 1.02 | 1.71 | 0.412 | 0.539 | 0.587 | 0.448 | 0.616 | 0.103 | 0.123 | 0.103 | 0.0901 | 0.0622 | 0.389 | 0.318 | 0.324 | 0.394 | 0.243 | – | –
2 | HCC-827 | 0.189 | 0.201 | 0.196 | 0.188 | 0.924 | 0.911 | 0.98 | 0.946 | 0.43 | 0.396 | 0.389 | 0.472 | 0.399 | 0.285 | 0.335 | 0.308 | 0.33 | 0.322 | 0.198 | 0.898
3 | HOP-62 | 1.03 | 1.2 | 0.862 | 0.482 | 0.939 | 0.744 | 0.701 | 0.442 | 0.402 | 0.369 | 0.305 | 0.323 | 0.258 | 0.2 | 0.193 | 0.204 | 0.213 | 0.162 | 0.785 | 1.01
4 | IA-LM | 0.585 | 0.789 | 0.853 | 0.405 | 0.713 | 1.09 | 0.944 | 0.502 | – | – | – | – | – | – | – | – | – | – | – | –
5 | LC-2-ad | 1.08 | 0.88 | 1.2 | 0.861 | 0.342 | 0.415 | 0.522 | 0.475 | 0.489 | 0.487 | 0.468 | 0.425 | 0.418 | 0.866 | 0.903 | 0.875 | 0.794 | 0.642 | 1.01 | 0.46
6 | LCLC-97TM1 | 1 | 1.08 | 1.03 | 0.677 | 0.367 | 0.307 | 0.263 | 0.343 | 0.266 | 0.166 | 0.193 | 0.237 | 0.182 | 0.234 | 0.252 | 0.216 | 0.253 | 0.181 | 0.7 | 0.453
7 | LCLC-103H | – | – | – | – | 1.06 | 1.04 | 0.947 | 0.836 | 0.437 | 0.449 | 0.451 | 0.486 | 0.532 | 0.685 | 0.702 | 0.69 | 0.826 | 0.646 | – | 1.05
8 | LK-2 | 0.772 | 1.01 | 0.903 | 0.633 | 0.234 | 0.202 | 0.293 | 0.29 | 0.176 | 0.188 | 0.172 | 0.161 | 0.174 | 0.316 | 0.226 | 0.341 | 0.339 | 0.248 | 0.764 | 0.291
9 | LOU-NH91 | 0.809 | 0.765 | 0.814 | 0.803 | 0.747 | 0.715 | 0.772 | 0.726 | 0.7 | 0.6 | 0.688 | 0.701 | 0.605 | 0.796 | 0.832 | 0.834 | 0.926 | 0.792 | 0.774 | 0.701
10 | LU99A | 1.04 | 0.998 | 1.06 | 0.835 | 0.636 | 0.558 | 0.625 | 0.444 | 0.299 | 0.272 | 0.268 | 0.307 | 0.197 | 1.18 | 0.988 | 0.763 | 0.989 | 0.907 | 0.894 | 0.602
11 | LXF-289 | 0.953 | 0.926 | 0.907 | 0.844 | 0.93 | 0.891 | 0.797 | 0.773 | 0.219 | 0.265 | 0.16 | 0.193 | 0.155 | 0.381 | 0.43 | 0.406 | 0.426 | 0.349 | 0.98 | 0.911
12 | NCI-H441 | – | – | – | – | 0.866 | 0.773 | 0.872 | 0.549 | 0.67 | 0.754 | 0.657 | 0.688 | 0.498 | 0.263 | 0.255 | 0.242 | 0.247 | 0.239 | – | –
13 | NCI-H1299 | 0.88 | 0.97 | 1.03 | 0.767 | 0.943 | 0.976 | 0.965 | 0.69 | – | – | – | – | – | – | – | – | – | – | 1.04 | 0.971
14 | NCI-H1395 | 0.97 | 0.908 | 1 | 0.821 | – | – | – | – | 0.809 | 0.868 | 0.697 | 0.765 | 0.686 | 0.718 | 0.782 | 0.652 | 0.688 | 0.674 | 1.11 | –
15 | NCI-H1563 | 0.845 | 1 | 1.01 | 0.857 | 0.842 | 0.793 | 0.817 | 0.87 | – | – | – | – | – | – | – | – | – | – | 0.91 | 0.775
16 | NCI-H1648 | – | – | – | – | – | – | – | – | 0.391 | – | – | 0.392 | 0.525 | 0.528 | 0.587 | 0.513 | 0.456 | 0.453 | – | –
17 | NCI-H1703 | 0.717 | 1.23 | 1.69 | 0.62 | 0.55 | 0.777 | 0.786 | 0.625 | – | – | – | – | – | – | – | – | – | – | 1.57 | 0.723
18 | NCI-H1792 | 0.401 | 0.931 | 0.921 | 0.489 | 0.671 | 1.02 | 1.11 | 0.549 | – | – | – | – | – | 0.312 | 0.561 | 0.614 | 0.426 | 0.19 | 1.02 | 1.01
19 | NCI-H1793 | 0.535 | 0.748 | 0.864 | 0.575 | – | – | – | – | 0.354 | 0.339 | 0.312 | 0.362 | 0.258 | 0.433 | 0.558 | 0.502 | 0.505 | 0.416 | 0.793 | –
20 | NCI-H2228 | 0.974 | 1.14 | 0.99 | 0.635 | 0.486 | 0.376 | 0.539 | 0.322 | 0.278 | 0.237 | 0.227 | 0.232 | 0.282 | – | – | – | – | – | 1.04 | 0.6
21 | NCI-H2342 | – | – | – | – | – | – | – | – | 0.559 | 0.492 | 0.585 | 0.504 | 0.431 | 0.547 | 0.809 | 0.697 | 0.834 | 0.645 | – | –
